Consider one compound from the NIST ThermoML archive (doi:10.1021/acs.jced.6b00008).

Numbers after ± are expanded uncertainties.

For data set [1] the following is noted: Crystal; DTA.
Data set [2] is described as follows: Molar enthalpy of transition or fusion. The following applies: Crystal; DSC.

As for `O=C(/C=C/c1ccc(O)c(O)c1)O[C@H](Cc1ccc(O)c(O)c1)C(=O)O` [rosmarinic acid], in data set [1], the Normal melting temperature was found to be 160.96 ± 3.4 °C. The “Molar enthalpy of transition or fusion” value in data set [2] turned out to be 3.92 ± 0.335 kcal/mol.
